# Values of other authors in patent US8343565B2, “Method for producing grape extract with high ORAC value and grape extract so produced” (Ethical Naturals, Inc., priority 2008, dated 2013).
# Settings: exemplary ORAC scores listed in the background
row,Compound,ORAC scores for common vegetables and fruits
1,vitamin E,"1,200 μmol TE/g"
2,O=C1O[C@H]([C@@H](O)CO)C(O)=C1O [vitamin C],"5,000 μmol TE/g"
